Here are results for twelve molecules from PubChem BioAssay (NCI).

Some test systems named below: HOP-62 NSCLC; UACC-62 melanoma; SN12C renal; SK-MEL-2 melanoma; SF-295 CNS; SW-620 colon; NCI-H460 lung; A549 NSCLC; SNB-75 CNS; HS 578T breast.
Experiment in all cases: NCI tumour cell line growth inhibition, 48 h

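Five concentrations, 48 hours, 96-well plates. The concentration for full growth arrest is given as TGI.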

Take `CCOC(=O)/C=C(\C(=O)OCC)n1ccc(N)nc1=O`: the TGI with HOP-62 NSCLC, in the test on UACC-62 melanoma, in the test on SN12C renal, with SK-MEL-2 melanoma, in the test on SF-295 CNS and with SW-620 colon was > 100 µM in each case. Besides, the TGI in the test with NCI-H460 lung, in the test on A549 NSCLC, in the test with SNB-75 CNS and in the test on HS 578T breast was > 100 µM in each case.
Take `COc1cc(/C=C2\N=C(c3ccccc3)N(c3nc4c(OC)ccc(OC)c4s3)C2=O)cc(OC)c1OC`: the TGI in the test on HOP-62 NSCLC, in the test on UACC-62 melanoma, with SN12C renal, in the test on SK-MEL-2 melanoma, in the test on SF-295 CNS and with SW-620 colon was > 100 µM in each case. In addition, the TGI in the test with NCI-H460 lung, with A549 NSCLC, in the test on SNB-75 CNS and with HS 578T breast was > 100 µM in each case.
As for `CC[C@H](C)[C@H]1NC(=O)[C@@H](NC(=O)[C@@H](CC(C)C)N(C)CC2CCCN2C(=O)C(C)=O)[C@@H](C)OC(=O)[C@H](Cc2ccc(OC)cc2)N(C)C(=O)C2CCCN2C(=O)[C@H](CC(C)C)NC(=O)[C@@H](C)C(=O)[C@H](C(C)C)OC(=O)C[C@@H]1O` (stereo not given in full), the TGI in the test with HOP-62 NSCLC worked out at 0.00713 µM; in the test with UACC-62 melanoma, 0.0182 µM; in the test on SN12C renal it was 0.0301 µM; with SK-MEL-2 melanoma it was 0.00703 µM; in the test with SF-295 CNS, 0.042 µM; with SW-620 colon it was 1.8 µM. In addition, the TGI in the test with NCI-H460 lung was 0.00812 µM; with A549 NSCLC it was 0.0335 µM; in the test on SNB-75 CNS it was 0.0108 µM; in the test on HS 578T breast, 0.0144 µM.
Take `COc1cc(CC2c3cc(OC)c(OC)cc3CCN2C)c(Oc2cc3c(cc2OC)-c2c(O)c(OC)cc4c2C(C3)N(C)CC4)cc1OC` (stereo not given): the TGI in the test on HOP-62 NSCLC was > 100 µM; in the test with UACC-62 melanoma, 40.1 µM; in the test with SN12C renal, 42 µM; in the test on SK-MEL-2 melanoma, 58.5 µM; in the test with SF-295 CNS it was 35.4 µM; in the test on SW-620 colon, > 100 µM. Besides, the TGI was 44.8 µM with NCI-H460 lung, > 100 µM in the test on A549 NSCLC, 31.3 µM with SNB-75 CNS and 45.2 µM with HS 578T breast.
With `O=S1(=O)c2ccccc2C(=NO)c2ccccc21`, the TGI in the test with HOP-62 NSCLC, with UACC-62 melanoma, with SN12C renal, with SK-MEL-2 melanoma, with SF-295 CNS and with SW-620 colon was > 100 µM each time. For the same molecule, the TGI in the test on NCI-H460 lung, in the test on A549 NSCLC, in the test on SNB-75 CNS and in the test on HS 578T breast was > 100 µM throughout.
As for `N#Cc1c(N2CCCC2)ncn(Cc2ccccc2)c1=O`, the TGI in the test on HOP-62 NSCLC, with UACC-62 melanoma, in the test on SN12C renal, in the test on SK-MEL-2 melanoma, with SF-295 CNS and with SW-620 colon was > 100 µM throughout. In addition, the TGI in the test on NCI-H460 lung, in the test on A549 NSCLC, in the test with SNB-75 CNS and in the test with HS 578T breast was > 100 µM throughout.
As to `Nc1ccccc1N/C=C\C(=O)C(Cl)(Cl)Cl`, the TGI in the test with HOP-62 NSCLC was determined as 37.2 µM; in the test on UACC-62 melanoma, 35.9 µM; with SN12C renal, 40.2 µM; with SK-MEL-2 melanoma it was 53.7 µM; in the test with SF-295 CNS, 75.1 µM; in the test with SW-620 colon, 48.1 µM. Also, the TGI with NCI-H460 lung was > 100 µM; in the test with A549 NSCLC, > 100 µM; in the test on SNB-75 CNS it was 72.2 µM; in the test with HS 578T breast it was > 100 µM.
Turning to `CNC(=O)c1cc(NC(=O)N(CCC#N)CCN(C(=O)N[C@@H](Cc2ccccc2)C(=O)N[C@@H](CC(C)C)C(=O)NC)c2ccccc2)ccc1OC`, the TGI in the test on HOP-62 NSCLC was > 100 µM; in the test on UACC-62 melanoma, > 55.4 µM; in the test on SN12C renal it was > 85.1 µM; with SK-MEL-2 melanoma, > 74.5 µM; in the test on SF-295 CNS, > 100 µM; in the test on SW-620 colon, > 100 µM. For the same molecule, the TGI in the test with NCI-H460 lung is 50.9 µM; in the test with A549 NSCLC it was > 100 µM; in the test with SNB-75 CNS, > 100 µM; in the test on HS 578T breast it was > 100 µM.
Regarding `COC(OC)C1OC(CO)C(n2ccc(N)nc2=O)C1O` (stereo not given), the TGI in the test on HOP-62 NSCLC, in the test on UACC-62 melanoma, with SN12C renal, in the test on SK-MEL-2 melanoma, with SF-295 CNS and in the test with SW-620 colon was > 100 µM in each case. Besides, the TGI with NCI-H460 lung, with A549 NSCLC, in the test with SNB-75 CNS and in the test with HS 578T breast was > 100 µM throughout.
Consider `CN(NC(=O)CCCl)C1=NCCCCN1`, for which the TGI in the test with HOP-62 NSCLC, with UACC-62 melanoma, in the test with SN12C renal, in the test on SK-MEL-2 melanoma, in the test on SF-295 CNS and with SW-620 colon was > 100 µM throughout. Moreover, the TGI with NCI-H460 lung, in the test on A549 NSCLC, with SNB-75 CNS and in the test on HS 578T breast was > 100 µM in each case.
Regarding `Cc1cn(CC2=NCC(C)(C)N2)c(=O)[nH]c1=O`, the TGI in the test with HOP-62 NSCLC, in the test on UACC-62 melanoma, with SN12C renal, with SK-MEL-2 melanoma, in the test with SF-295 CNS and in the test with SW-620 colon was > 100 µM each time. Moreover, the TGI in the test with NCI-H460 lung, with A549 NSCLC, in the test on SNB-75 CNS and in the test on HS 578T breast was > 100 µM in each case.
Consider `CN(C)Cc1cc(O)c(O)c(CN(C)C)c1`, for which the TGI in the test on HOP-62 NSCLC, with UACC-62 melanoma, in the test on SN12C renal, with SK-MEL-2 melanoma, in the test on SF-295 CNS and with SW-620 colon was > 100 µM in each case. For the same molecule, the TGI in the test with NCI-H460 lung is 52.5 µM; with A549 NSCLC it was > 100 µM; in the test on SNB-75 CNS, > 100 µM; with HS 578T breast, > 100 µM.
